Consider 14 molecules from patent publication US20240116985A1, “STAPLED PEPTIDES AND METHODS THEREOF” (priority 2020, published 2024).

This assay concerns the target T1, full-length beta-Catenin (Uniprot ID P35222) (Homo sapiens, UniProt P35222).
T1 construct: 10 nM full-length beta-Catenin (Uniprot ID P35222)
T1 sequence (P35222 1-781): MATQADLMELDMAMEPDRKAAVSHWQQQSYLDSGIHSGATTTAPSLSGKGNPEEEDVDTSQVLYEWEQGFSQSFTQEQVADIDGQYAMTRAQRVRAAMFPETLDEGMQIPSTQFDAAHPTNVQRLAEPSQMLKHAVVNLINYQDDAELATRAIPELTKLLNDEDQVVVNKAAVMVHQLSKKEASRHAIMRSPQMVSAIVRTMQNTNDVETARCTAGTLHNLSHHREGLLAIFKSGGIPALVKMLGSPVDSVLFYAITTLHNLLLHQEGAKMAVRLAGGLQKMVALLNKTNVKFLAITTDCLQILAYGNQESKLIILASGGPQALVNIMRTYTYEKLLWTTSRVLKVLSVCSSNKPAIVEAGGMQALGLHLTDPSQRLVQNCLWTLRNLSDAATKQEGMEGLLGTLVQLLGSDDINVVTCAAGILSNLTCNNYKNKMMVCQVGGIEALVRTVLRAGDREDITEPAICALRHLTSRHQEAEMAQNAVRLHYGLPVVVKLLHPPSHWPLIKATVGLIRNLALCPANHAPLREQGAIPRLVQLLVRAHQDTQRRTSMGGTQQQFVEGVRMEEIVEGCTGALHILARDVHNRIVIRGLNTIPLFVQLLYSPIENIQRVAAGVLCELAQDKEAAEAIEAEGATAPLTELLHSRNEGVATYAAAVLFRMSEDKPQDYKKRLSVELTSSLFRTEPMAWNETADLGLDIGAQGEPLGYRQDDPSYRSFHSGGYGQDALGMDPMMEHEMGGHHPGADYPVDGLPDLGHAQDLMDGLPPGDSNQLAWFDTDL
The experiment in a line: Fluorescence polarization IC50 (beta-catenin / 5FAM-TCF4 10-53 competition). Conditions: fluorescence polarization; read-out: beta-Catenin FP IC50. It counts as binding. On the technique in general: Fluorescence polarisation rises when a labelled molecule tumbles more slowly, as on binding a larger partner.
For orientation: IC50 means the concentration at which inhibition is half-maximal. On to `CC(=O)N1CCC[C@]12CC=CCCCC1(CCCC=CCCCOC(=O)N3CC[C@@](C(=O)N[C@@H](Cc4ccsc4)C(=O)N[C@@H](Cc4csc5ccccc45)C(=O)N[C@@H](CCC(N)=O)C(N)=O)(C3)NC(=O)[C@H](CC(N)=O)NC(=O)[C@H](Cc3ccc(O)cc3)NC(=O)[C@H](C)NC(=O)[C@H](C)NC(=O)[C@H]([C@@H](C)O)NC(=O)[C@H](CC(N)=O)NC1=O)NC(=O)[C@H](CC(C)(C)C)NC(=O)[C@H](CC(=O)O)NC2=O` (stereo partly drawn) [I-2015, Ac-PL3-Asp-Npg-B5-Asn-Thr-Ala-Ala-Tyr-Asn-PyrS2-3Thi-BztA-Gln-NH2], for which the half-maximal inhibitory concentration (IC50) was determined as 522 nM.

With `CC(=O)N1CCC[C@]12CC=CCCCC1(CCCC=CCCCOC(=O)N3CC[C@@](C(=O)N[C@@H](Cc4ccsc4)C(=O)N[C@@H](Cc4csc5ccccc45)C(=O)N[C@@H](CCC(N)=O)C(N)=O)(C3)NC(=O)[C@H](CC(N)=O)NC(=O)[C@H](Cc3ccc(O)cc3)NC(=O)[C@H](C)NC(=O)[C@H](C)NC(=O)[C@H]([C@@H](C)O)NC(=O)[C@H](CC(N)=O)NC1=O)NC(=O)[C@H](CC(C)(C)C)NC(=O)[C@H](CC(=O)O)NC2=O` (stereo partly drawn) [I-2016, Ac-PL3-Asp-Npg-B5-Asn-Thr-Ala-Ala-Tyr-Asn-PyrS2-3Thi-BztA-Gln-NH2], the IC50 was found to be 703 nM.

In the case of `CC(=O)N1CCC[C@]12CC=CCCCC1(CCCC=CCCCOC(=O)N3CC[C@](C(=O)N[C@@H](Cc4ccsc4)C(=O)N[C@@H](Cc4csc5ccccc45)C(=O)N[C@@H](CCC(N)=O)C(N)=O)(C3)NC(=O)[C@H](CC(N)=O)NC(=O)[C@H](Cc3ccccc3)NC(=O)[C@H](C)NC(=O)[C@H](C)NC(=O)[C@H](CC(=O)O)NC(=O)[C@H](CC(=O)O)NC1=O)NC(=O)[C@H](CC(C)(C)C)NC(=O)[C@H](CC(=O)O)NC2=O` (stereo partly drawn) [I-2017, Ac-PL3-Asp-Npg-B5-Asp-Asp-Ala-Ala-Phe-Asn-PyrR2-3Thi-BztA-Gln-NH2], the IC50 stood at 2050 nM.

As to `CC(=O)N1CCC[C@]12CC=CCCCC1(CCCC=CCCCOC(=O)N3CC[C@](C(=O)N[C@@H](Cc4ccsc4)C(=O)N[C@@H](Cc4csc5ccccc45)C(=O)N[C@@H](CCC(N)=O)C(N)=O)(C3)NC(=O)[C@H](CC(N)=O)NC(=O)[C@H](Cc3ccccc3)NC(=O)[C@H](C)NC(=O)[C@H](C)NC(=O)[C@H](CC(=O)O)NC(=O)[C@H](CC(=O)O)NC1=O)NC(=O)[C@H](CC(C)(C)C)NC(=O)[C@H](CC(=O)O)NC2=O` (stereo partly drawn) [I-2018, Ac-PL3-Asp-Npg-B5-Asp-Asp-Ala-Ala-Phe-Asn-PyrR2-3Thi-BztA-Gln-NH2], the concentration for half-maximal inhibition (IC50) turned out to be 1680 nM.

For the molecule `CC(=O)N1CCC[C@]12CC=CCCCC1(CCCC=CCCCOC(=O)N3CC[C@](C(=O)N[C@@H](Cc4ccsc4)C(=O)N[C@@H](Cc4csc5ccccc45)C(=O)N[C@@H](CCC(N)=O)C(N)=O)(C3)NC(=O)[C@H](CC(C)C)NC(=O)[C@H](Cc3ccccc3)NC(=O)[C@H](C)NC(=O)[C@H](C)NC(=O)[C@H](CC(=O)O)NC(=O)[C@H](CC(=O)O)NC1=O)NC(=O)[C@H](CC(C)(C)C)NC(=O)[C@H](CC(=O)O)NC2=O` (stereo partly drawn) [I-2019, Ac-PL3-Asp-Npg-B5-Asp-Asp-Ala-Ala-Phe-Leu-PyrR2-3Thi-BztA-Gln-NH2], the IC50 turned out to be 1450 nM.

For the molecule `CC(=O)N1CCC[C@]12CC=CCCCC1(CCCC=CCCCOC(=O)N3CC[C@](C(=O)N[C@@H](Cc4ccsc4)C(=O)N[C@@H](Cc4csc5ccccc45)C(=O)N[C@@H](CCC(N)=O)C(N)=O)(C3)NC(=O)[C@H](CC(C)C)NC(=O)[C@H](Cc3ccccc3)NC(=O)[C@H](C)NC(=O)[C@H](C)NC(=O)[C@H](CC(=O)O)NC(=O)[C@H](CC(=O)O)NC1=O)NC(=O)[C@H](CC(C)(C)C)NC(=O)[C@H](CC(=O)O)NC2=O` (stereo partly drawn) [I-2020, Ac-PL3-Asp-Npg-B5-Asp-Asp-Ala-Ala-Phe-Leu-PyrR2-3Thi-BztA-Gln-NH2], the 50% inhibitory concentration (IC50) stood at 1200 nM.

Take `CC(=O)N1CCC[C@]12CCCCCCC1(CCCCCCCCOC(=O)N3CC[C@](C(=O)N[C@@H](Cc4ccsc4)C(=O)N[C@@H](Cc4csc5ccccc45)C(=O)N[C@@H](CCC(N)=O)C(N)=O)(C3)NC(=O)[C@H](CC(N)=O)NC(=O)[C@H](Cc3ccccc3)NC(=O)[C@H](C)NC(=O)[C@H](C)NC(=O)[C@H](CC(=O)O)NC(=O)[C@H](CC(=O)O)NC1=O)NC(=O)[C@H](CC(C)(C)C)NC(=O)[C@H](CC(=O)O)NC2=O` (stereo partly drawn) [I-2021, Ac-PL3-Asp-Npg-B5-Asp-Asp-Ala-Ala-Phe-Asn-PyrR2-3Thi-BztA-Gln-NH2]: the half-maximal inhibitory concentration (IC50) was 5380 nM.

As to `CC(=O)N1CCC[C@]12CCCCCCC1(CCCCCCCCOC(=O)N3CC[C@](C(=O)N[C@@H](Cc4ccsc4)C(=O)N[C@@H](Cc4csc5ccccc45)C(=O)N[C@@H](CCC(N)=O)C(N)=O)(C3)NC(=O)[C@H](CC(C)C)NC(=O)[C@H](Cc3ccccc3)NC(=O)[C@H](C)NC(=O)[C@H](C)NC(=O)[C@H](CC(=O)O)NC(=O)[C@H](CC(=O)O)NC1=O)NC(=O)[C@H](CC(C)(C)C)NC(=O)[C@H](CC(=O)O)NC2=O` (stereo partly drawn) [I-2022, Ac-PL3-Asp-Npg-B5-Asp-Asp-Ala-Ala-Phe-Leu-PyrR2-3Thi-BztA-Gln-NH2], the IC50 was determined as 1890 nM.

With `CC(=O)N1CCC[C@]12CC=CCCCC1(CCCC=CCCCOC(=O)N3CC[C@@](C(=O)N[C@@H](Cc4ccccc4Cl)C(=O)N[C@@H](Cc4csc5ccccc45)C(=O)N[C@@H](Cc4ccccc4)C(N)=O)(C3)NC(=O)[C@H](C)NC(=O)[C@H](Cc3ccccc3)NC(=O)[C@H](C)NC(=O)[C@H](C)NC(=O)[C@H](Cc3cccc(C(=O)O)c3)NC(=O)[C@H](CC(=O)O)NC1=O)NC(=O)[C@H](CC(C)(C)C)NC(=O)[C@H](CC(=O)O)NC2=O` (stereo partly drawn) [I-2025, Ac-PL3-Asp-Npg-B5-Asp-3COOHF-Ala-Ala-Phe-Ala-PyrS2-2C1F-BztA-Phe-NH2], the IC50 came to 109 nM.

Consider `CC(=O)N1CCC[C@]12CC=CCCCC1(CCCC=CCCCOC(=O)N3CC[C@@](C(=O)N[C@@H](Cc4ccccc4Cl)C(=O)N[C@@H](Cc4csc5ccccc45)C(=O)N[C@H](C)C(N)=O)(C3)NC(=O)[C@H](CC(N)=O)NC(=O)[C@H](Cc3ccccc3)NC(=O)[C@H](C)NC(=O)[C@H](C)NC(=O)[C@H](Cc3cccc(C(=O)O)c3)NC(=O)[C@H](CC(=O)O)NC1=O)NC(=O)[C@H](CC(C)(C)C)NC(=O)[C@H](CC(=O)O)NC2=O` (stereo partly drawn) [I-2034, Ac-PL3-Asp-Npg-B5-Asp-3COOHF-Ala-Ala-Phe-Asn-PyrS2-2C1F-BztA-dAla-NH2], for which the IC50 came to 18 nM.

Take `CC(=O)N1CCC[C@]12CC=CCCCC1(CCCC=CCCCOC(=O)N3CC[C@@](C(=O)N[C@@H](Cc4ccsc4)C(=O)N[C@@H](Cc4csc5ccccc45)C(=O)N[C@@H](C)C(N)=O)(C3)NC(=O)[C@H](C(C)C)NC(=O)[C@H](Cc3ccccc3)NC(=O)[C@H](C)NC(=O)[C@H](CCC(N)=O)NC(=O)[C@H](Cc3cccc(C(=O)O)c3)NC(=O)[C@H](CC(=O)O)NC1=O)NC(=O)[C@H](CC(C)(C)C)NC(=O)[C@H](CC(=O)O)NC2=O` (stereo partly drawn) [I-2054, Ac-PL3-Asp-Npg-B5-Asp-3COOHF-Gln-Ala-Phe-Val-PyrS2-3Thi-BztA-Ala-NH2]: the half-maximal inhibitory concentration (IC50) stood at 5 nM.

As for `CC(=O)N1CCC[C@]12CC=CCCCC1(CCCC=CCCCOC(=O)N3CC[C@@](C(=O)N[C@@H](Cc4ccccc4)C(=O)N[C@@H](Cc4csc5ccccc45)C(=O)N[C@@H](CCO)C(N)=O)(C3)NC(=O)[C@H](CC(N)=O)NC(=O)[C@H](Cc3ccccc3)NC(=O)[C@H](C)NC(=O)[C@H](Cc3c[nH]cn3)NC(=O)[C@H](CCC(N)=O)NC(=O)[C@H](CC(=O)O)NC1=O)NC(=O)[C@H](CC1CCCCC1)NC(=O)[C@H](CC(N)=O)NC2=O` (stereo partly drawn) [I-2066, Ac-PL3-Asn-Cha-B5-Asp-Gln-His-Ala-Phe-Asn-PyrS2-Phe-BztA-Hse-NH2], the IC50 came to 357 nM.

For the molecule `CC(=O)N1CCC[C@]12CC=CCCCC1(CCCC=CCCCOC(=O)N3CC[C@@](C(=O)N[C@@H](Cc4cscn4)C(=O)N[C@@H](Cc4csc5ccccc45)C(=O)N[C@@H](CCO)C(N)=O)(C3)NC(=O)[C@H](CC(N)=O)NC(=O)[C@H](Cc3ccccc3)NC(=O)[C@H](C)NC(=O)[C@H](CCCCNC(C)C)NC(=O)[C@H](CCC(N)=O)NC(=O)[C@H](CC(=O)O)NC1=O)NC(=O)[C@H](CC1CCCCC1)NC(=O)[C@H](CC(N)=O)NC2=O` (stereo partly drawn) [I-2071, Ac-PL3-Asn-Cha-B5-Asp-Gln-iPrLys-Ala-Phe-Asn-PyrS2-4Thz-BztA-Hse-NH2], the IC50 was 592 nM.

Consider `CC(=O)N1CCC[C@]12CC=CCCCC1(CCCC=CCCCOC(=O)N3CC[C@@](C(=O)N[C@@H](Cc4ccccc4)C(=O)N[C@@H](Cc4csc5ccccc45)C(=O)N[C@@H](CCO)C(N)=O)(C3)NC(=O)[C@H](CC(N)=O)NC(=O)[C@H](Cc3cscn3)NC(=O)[C@H](C)NC(=O)[C@H](CCCCNC(C)C)NC(=O)[C@H](CCC(N)=O)NC(=O)[C@H](CC(=O)O)NC1=O)NC(=O)[C@H](CC1CCCCC1)NC(=O)[C@H](CC(N)=O)NC2=O` (stereo partly drawn) [I-2072, Ac-PL3-Asn-Cha-B5-Asp-Gln-iPrLys-Ala-4Thz-Asn-PyrS2-Phe-BztA-Hse-NH2], for which the IC50 came out at 8260 nM.
